Results as given in patent publication US20240173372A1 (IMDpharm Inc., priority 2021, published 2024).
In brackets after ≈: the same amount, converted by molar mass.

System: House Ear Institute-Organ of Corti 1 (HEI-OC1) auditory hair cell
Test: Apoptosis inhibitory effect on auditory cell line treated with hydrogen peroxide (MTT analysis)
Assay type: cell-based, mice
Details: Mus musculus, HEI-OC1, 100 μM hydrogen peroxide, read-out: EC50 (apoptosis inhibitory effect, hair cells)
Experimental: House Ear Institute-Organ of Corti 1 (HEI-OC1), an auditory hair cell derived from the Organ of Corti which is the auditory generation organ in mice, was cultured in an incubator at 33° C. in the presence of 10% CO2 using DMEM (high-glucose Dulbecco's Eagle's medium, Sigma-Aldrich Co., St. Louis, USA) culture including 10% fetal bovine serum (FBS; WELGENE Inc., Gyeongsangbuk-do, Korea) and 50 U/mL INF-γ (Peprotech Inc., Seoul, Korea) without addition of antibiotics. In order to generate reactive oxygen species (ROS) caused by oxidative stress that occurs in the process of inducing noise induced hearing loss, cell lines with noise induced hearing loss were established by treating hydrogen peroxide.

SMILES: COc1cccc(CCc2ccccc2OCC(CN(C)C)OC(=O)CCC(=O)O)c1 (single isomer, unassigned; (-)) [sarpogrelate, (−)-4-[1-dimethylamino-3-[2-[2-(3-methoxyphenyl)ethyl]phenoxy]propan-2-yl]oxy-4-oxobutanoic acid]
- EC50: 26.4 µg/mL (≈ 61.5 µM)
